Like-named read-outs stand apart in the source and are kept apart here.

The test system of this experiment is HCV replicon (5-2 Luc replicon-comprising cells). Put plainly: HCV replicon assay (luciferase). The experiment is classed as cell-based, Hepatitis C virus. Conditions: 5-2 Luc replicon cells, luciferase readout, read-out: Replicon IC50. The source says:
In one embodiment, the inhibitory activity of the compounds can be confirmed in a replicon assay that assesses the ability of a test compound to block or inhibit HCV replication in replicon cells. One example of a suitable replicon assay is the liver cell-line Huh 7-based replicon assay described in Lohmann et al., 1999, Science 285:110–113. A specific example of this replicon assay which utilizes luciferase translation is provided in the Examples Section. In one embodiment of this assay, the amount of test compound that yields a 50% reduction in translation as compared to a control cell (IC50) may be determined.
The inhibitory activity of certain exemplary compounds of the invention was confirmed using an HCV replicon assay. The HCV replicon can include such features as the HCV 5′ untranslated region including the HCV IRES, the HCV 3′ untranslated region, selected HCV genes encoding HCV polypeptides, selectable markers, and a reporter gene such as luciferase, GFP, etc. In the assay, actively dividing 5-2 Luc replicon-comprising cells (obtained from Ralf Bartenschlager; see Lohmann et al., 1999, Science 285:110–113) were seeded at a density of between about 5,000 and 7,500 cells/well onto 96 well plates (about 90 μl of cells per well) and incubated at 37° C. and 5% CO2 for 24 hours. Then, the test compound (in a volume of about 10 μl) was added to the wells at various concentrations and the cells were incubated for an additional 24 hours before luciferase assay. Briefly, the Bright-Glo reagent was diluted 1:1 with PBS and 100 μl of diluted reagent was added to each well. After 5 min of incubation at room temperature, luciferin emission was quantified with a luminometer. In this assay, the amount of test compound that yielded a 50% reduction in luciferase activity (IC50) was determined.
In TABLE 1, a value of “+” indicates an IC50 of 10 μM or less in the specified assay; a value of “−” indicates an IC50 of greater than 10 μM in the specified assay.
(In antiviral work, replicon cells carry a viral genome segment that copies itself.)

What is called IC50 is the point on the concentration scale where inhibition reaches its midpoint. For `O=C(Nc1cccc(-c2cc(-c3c(Cl)cccc3OCc3ccccc3)no2)c1)C(Cl)Cl` [Compound 670], the IC50 is less than 10 µM.

Turning to `O=C(Nc1cccc(-c2cc(-c3c(Cl)cccc3N3CCN(c4cccnc4)CC3)no2)c1)C(Cl)Cl` [Compound 550], the IC50 was less than 10 µM.

For `CC(=O)N1CCC(CCOc2cccc(Cl)c2-c2cc(-c3cccc(NC(=O)C(Cl)Cl)c3)on2)CC1` [Compound 645], the half-inhibitory concentration (IC50) was less than 10 µM.

On to `O=C(Nc1cccc(-c2cc(-c3c(Cl)cccc3N3CCN(C(=O)C4CC4)CC3)no2)c1)C(Cl)Cl` [Compound 535], for which the IC50 is less than 10 µM.

For the compound `O=C(Nc1cccc(-c2cc(-c3c(Cl)cccc3N3CCN(C(=O)c4cccc([N+](=O)[O-])c4)CC3)no2)c1)C(Cl)Cl` [Compound 660], the IC50 was less than 10 µM.

Take `O=C(Nc1cccc(-c2cc(-c3c(Cl)cccc3N3CCN4CCCC4C3)no2)c1)C(Cl)Cl` (centres unmarked) [Compound 651]: the half-inhibitory concentration (IC50) is less than 10 µM.

As to `O=C(Nc1cccc(-c2cc(-c3ccccc3CO)no2)c1)C(Cl)Cl` [Compound 621], the IC50 was less than 10 µM.

As to `CS(=O)(=O)Nc1cccc(Cl)c1-c1cc(-c2cccc(NC(=O)C(Cl)Cl)c2)on1` [Compound 561], the IC50 is less than 10 µM.

On to `CN(c1cccc(Cl)c1-c1cc(-c2cccc(NC(=O)C(Cl)Cl)c2)on1)C1CCN(S(C)(=O)=O)CC1` [Compound 583], for which the IC50 was less than 10 µM.

On to `O=C(Nc1cc(-c2cc(-c3c(Cl)cccc3Cl)no2)ccc1N1CCOCC1)C(Cl)Cl` [Compound 169], for which the IC50 was greater than 10 µM.

Consider `CC(C)(C)OC(=O)COc1cccc(Cl)c1-c1cc(-c2cccc(NC(=O)C(Cl)Cl)c2)on1` [Compound 678], for which the IC50 is greater than 10 µM.

With `O=C(Nc1cccc(-c2cc(-c3c(Cl)cccc3N3CCN(c4ccccc4)CC3)no2)c1)C(Cl)Cl` [Compound 516], the IC50 is less than 10 µM.

For `CN(C(=O)C(Cl)Cl)c1cccc(-c2cc(-c3c(Cl)cccc3Cl)no2)c1` [Compound 57, 2,2-Dichloro-N-[3-[3-(2,6-dichlorophenyl)-5-isoxazolyl]phenyl]-N-methyl Acetamide], the IC50 is less than 10 µM.

Turning to `O=C(Nc1cccc(-c2cc(-c3c(Cl)cccc3N3CCC(NS(=O)(=O)c4ccccc4)CC3)no2)c1)C(Cl)Cl` [Compound 547], the IC50 is less than 10 µM.

For `CN(c1cccc(Cl)c1-c1cc(-c2cccc(NC(=O)C(Cl)Cl)c2)on1)C1CCN(C(=O)OC(C)(C)C)CC1` [Compound 580], the IC50 was less than 10 µM.

For `O=C(O)c1ccccc1-c1cc(-c2cccc(NC(=O)C(Cl)Cl)c2)on1` [Compound 157, 2,2-Dichloro-N-[3-[3-(2-carboxyphenyl)-5-isoxazolyl]phenyl]Acetamide], the IC50 (Hepatitis C virus) was greater than 10 µM.

For the compound `CN(Cc1cccnc1)c1cccc(Cl)c1-c1cc(-c2cccc(NC(=O)C(Cl)Cl)c2)on1` [Compound 635], the IC50 was less than 10 µM.

Take `CNC(=O)c1cccc(Cl)c1-c1cc(-c2cccc(NC(=O)C(Cl)Cl)c2)on1` [Compound 691]: the half-inhibitory concentration (IC50) is less than 10 µM.

On to `CCNC(=O)N1CCC(N(C)c2cccc(Cl)c2-c2cc(-c3cccc(NC(=O)C(Cl)Cl)c3)on2)CC1` [Compound 584], for which the concentration for half-maximal inhibition (IC50) was less than 10 µM.

Regarding `CS(=O)(=O)NC1CCN(c2cccc(Cl)c2-c2cc(-c3cccc(NC(=O)C(Cl)Cl)c3)on2)C1` (centres unmarked) [Compound 573], the IC50 was less than 10 µM.

Turning to `O=C(Nc1cccc(-c2cc(-c3c(Cl)cccc3N3CCN(C(=O)c4cc(C(F)(F)F)cc(C(F)(F)F)c4)CC3)no2)c1)C(Cl)Cl` [Compound 658], the IC50 was less than 10 µM.

Take `O=C(Nc1cccc(-c2cc(-c3c(Cl)cccc3N3CCN(C(=O)c4c[nH]cn4)CC3)no2)c1)C(Cl)Cl` [Compound 539]: the IC50 was less than 10 µM.

For `O=C(Nc1cccc(-c2cc(-c3ccccc3N3CCN(c4ccccn4)CC3)no2)c1)C(Cl)Cl` [Compound 614], the half-maximal inhibitory concentration (IC50) was greater than 10 µM.

Consider `N#Cc1cccc(F)c1-c1cc(-c2cccc(NC(=O)C(Cl)Cl)c2)on1` [Compound 613], for which the IC50 was less than 10 µM.

As for `O=C(Nc1cccc(-c2cc(-c3c(Cl)cccc3N3CCN(c4ncccc4C(F)(F)F)CC3)no2)c1)C(Cl)Cl` [Compound 538], the 50% inhibitory concentration (IC50) is less than 10 µM.

Consider `O=C(Nc1cccc(-c2cc(-c3c(Cl)cccc3N3CCCCC3)no2)c1)C(Cl)Cl` [Compound 503], for which the IC50 was less than 10 µM.

Regarding `CC(C)(C)OC(=O)NCC1CCN(c2cccc(Cl)c2-c2cc(-c3cccc(NC(=O)C(Cl)Cl)c3)on2)CC1` [Compound 589], the IC50 is less than 10 µM.

For `CC(=O)N1CCC(N(C)c2cccc(Cl)c2-c2cc(-c3cccc(NC(=O)C(Cl)Cl)c3)on2)CC1` [Compound 582], the IC50 was less than 10 µM.

Take `CC(C)(C)OC(=O)N1CCN(c2cccc(Cl)c2-c2cc(-c3cccc(NC(=O)C(Cl)Cl)c3)on2)CC1` [Compound 510]: the IC50 was less than 10 µM.

As to `O=C(Nc1cccc(-c2cc(-c3c(Cl)cccc3N3CCC(c4ccccc4)CC3)no2)c1)C(Cl)Cl` [Compound 638], the IC50 was less than 10 µM.

On to `CC(=O)N1CCCC(Oc2cccc(Cl)c2-c2cc(-c3cccc(NC(=O)C(Cl)Cl)c3)on2)C1` (centres unmarked) [Compound 585], for which the IC50 was less than 10 µM.

With `C[N+](C)(C)CCOc1cccc(Cl)c1-c1cc(-c2cccc(NC(=O)C(Cl)Cl)c2)on1` [Compound 598], the IC50 is less than 10 µM.

Consider `O=C(Nc1cccc(-c2cc(-c3c(Cl)cccc3N3CCN(C(=O)c4cc5ccccc5[nH]4)CC3)no2)c1)C(Cl)Cl` [Compound 555], for which the IC50 was less than 10 µM.

For `CC(C)(C)OC(=O)N1CCC(Oc2cccc(Cl)c2-c2cc(-c3cccc(NC(=O)C(Cl)Cl)c3)on2)C1` (centres unmarked) [Compound 592], the IC50 was less than 10 µM.

Consider `NC(=O)C1CCN(c2cccc(Cl)c2-c2cc(-c3cccc(NC(=O)C(Cl)Cl)c3)on2)CC1` [Compound 625], for which the IC50 is less than 10 µM.

Consider `O=C(Nc1cccc(-c2cc(-c3c(Cl)cccc3OC3CCCNC3)no2)c1)C(Cl)Cl` (centres unmarked) [Compound 571], for which the IC50 is less than 10 µM.

For the compound `CC(=O)N1CCN(c2cccc(Cl)c2-c2cc(-c3cccc(NC(=O)C(Cl)Cl)c3)on2)CC1` [Compound 617], the IC50 is less than 10 µM.

For the compound `CCNC(=O)N1CCCC(Oc2cccc(Cl)c2-c2cc(-c3cccc(NC(=O)C(Cl)Cl)c3)on2)C1` (centres unmarked) [Compound 587], the IC50 was less than 10 µM.

Take `CCOC(=O)C1CCN(c2cccc(Cl)c2-c2cc(-c3cccc(NC(=O)C(Cl)Cl)c3)on2)CC1` [Compound 151, 2,2-Dichloro-N-[3-[3-[2-chloro-6-(4-carboethoxypiperidino)phenyl]-5-isoxazolyl]-phenyl]Acetamide]: the IC50 (Hepatitis C virus) is greater than 10 µM.

For `O=C(NC1CCN(c2cccc(Cl)c2-c2cc(-c3cccc(NC(=O)C(Cl)Cl)c3)on2)C1)c1ccccn1` (centres unmarked) [Compound 572], the IC50 is less than 10 µM.

Regarding `CN(C(=O)C(Cl)Cl)c1cccc(-c2cc(-c3c(N)cccc3Cl)no2)c1` [Compound 564], the IC50 is greater than 10 µM.

Consider `O=C(Nc1cccc(-c2cc(-c3c(Cl)cccc3N3CCN(C(=O)C4CCCCN4)CC3)no2)c1)C(Cl)Cl` (centres unmarked) [Compound 666], for which the IC50 is less than 10 µM.

In the case of `CCCNC(=O)Oc1cccc(Cl)c1-c1cc(-c2cccc(NC(=O)C(Cl)Cl)c2)on1` [Compound 606], the IC50 was less than 10 µM.

Take `CN(C)C(=O)CN1CCN(c2cccc(Cl)c2-c2cc(-c3cccc(NC(=O)C(Cl)Cl)c3)on2)CC1` [Compound 628]: the half-maximal inhibitory concentration (IC50) was less than 10 µM.

For `CCNC(=O)N1CCC(Oc2cccc(Cl)c2-c2cc(-c3cccc(NC(=O)C(Cl)Cl)c3)on2)CC1` [Compound 578], the concentration for half-maximal inhibition (IC50) is less than 10 µM.

As for `CC(C)(C)OC(=O)c1cccc(Cl)c1-c1cc(-c2cccc(NC(=O)C(Cl)Cl)c2)on1` [Compound 686], the IC50 is less than 10 µM.

With `CC(C)(C)OC(=O)N1CCC(Oc2cccc(Cl)c2-c2cc(-c3cccc(NC(=O)C(Cl)Cl)c3)on2)CC1` [Compound 568], the half-inhibitory concentration (IC50) is less than 10 µM.

Regarding `NC1CCN(c2cccc(Cl)c2-c2cc(-c3cccc(NC(=O)C(Cl)Cl)c3)on2)C1` (centres unmarked) [Compound 504], the IC50 is less than 10 µM.

Turning to `O=C(Nc1cccc(-c2cc(-c3c(Cl)cccc3OCCN3CCOCC3)no2)c1)C(Cl)Cl` [Compound 95, 2,2-Dichloro-N-[3-[3-[2-chloro-6-(N-morpholino-2-ethyleneoxy)phenyl]-5isoxazolyl]-phenyl]Acetamide], the IC50 is less than 10 µM.

In the case of `CN(C(=O)C(Cl)Cl)c1cccc(-c2cc(-c3c(Cl)cccc3N=[N+]=[N-])no2)c1` [Compound 563], the IC50 was less than 10 µM.

For `O=C(Nc1cccc(-c2cc(-c3c(Cl)cccc3N3CCN(C(=O)OCc4ccccc4)CC3)no2)c1)C(Cl)Cl` [Compound 622], the IC50 is less than 10 µM.

On to `O=C(Nc1cccc(-c2cc(-c3c(Cl)cccc3OCc3cccnc3)no2)c1)C(Cl)Cl` [Compound 605], for which the IC50 was less than 10 µM.

On to `O=C(Nc1cccc(-c2cc(-c3c(Cl)cccc3N3CCN(C(=O)c4ccccc4)CC3)no2)c1)C(Cl)Cl` [Compound 642], for which the half-inhibitory concentration (IC50) was less than 10 µM.

The values above are taken from patent US7115642B2, “Substituted diphenyl isoxazoles, pyrazoles and oxadiazoles useful for treating HCV infection” (priority 2003, dated 2006).
